Where “and” joins values, the source holds several entries; their conditions need not be identical. Identical values can stand only once. Inconclusive results are not listed.
Tested on: MX-1 breast xenograft, intrarenal, nude mice, tumor weight
Assay: NCI In Vivo Anticancer Drug Screen. Data for tumor model Human Mammary Carcinoma MX-1 Xenograft (intrarenal inoculation) in NU/NU BALB/C (nude) mice
Conditions: endpoint: mean tumor weight change, higher = larger tumour
Protocol: The antitumor activity of compounds was measured in mice bearing transplantable tumors. Survival or tumor size were measured and the results are expressed as the measurement made in the treated group (T) divided by the measurement made in the vehicle treated control group (C). The tumor model used in this assay is Human Mammary Carcinoma MX-1 Xenograft (intrarenal inoculation) in NU/NU BALB/C (nude) mice

[1] = dose: 75.0 mg/kg/injection, schedule: Q04DX003 (ip), vehicle: water
[2] = dose: 150.0 mg/kg/injection, schedule: Q04DX003 (ip), vehicle: water
[3] = dose: 300.0 mg/kg/injection, schedule: Q04DX003 (ip), vehicle: water
[4] = dose: 37.5 mg/kg/injection, schedule: Q04DX003 (sc), vehicle: Klucel (hydroxypropylcellulose) (HPC)
[5] = dose: 100.0 mg/kg/injection, schedule: Q04DX003 (ip), vehicle: saline with Tween-80

Q: With `Cc1c(N)nc(C(CC(N)=O)NCC(N)C(N)=O)nc1C(=O)NC(C(=O)NC(C)C(O)C(C)C(=O)NC(C(=O)NCCc1nc(-c2nc(C(=O)NCCCNC(C)c3ccccc3)cs2)cs1)C(C)O)C(OC1OC(CO)C(O)C(O)C1OC1OC(CO)C(O)C(OC(N)=O)C1O)c1cnc[nH]1` (centres undefined) as the compound, how does the T/C (dose: 8.0 mg/kg/injection, schedule: Q01DX010 (sc), vehicle: saline) read?
A: 69 % of control

Q: What about the T/C (dose: 16.0 mg/kg/injection, schedule: Q01DX010 (sc), vehicle: saline) of the same compound?
A: 55 % of control

Q: And the T/C (dose: 32.0 mg/kg/injection, schedule: Q01DX010 (sc), vehicle: saline)?
A: 43 % of control

Q: For `COc1cc2c(c3c1c(=O)c1ccccc1n3C)C=CC(C)(C)O2`, which T/C (dose: 37.5 mg/kg/injection, schedule: Q04DX003 (ip), vehicle: Klucel (hydroxypropylcellulose) (HPC)) is on record?
A: 54 % of control

Q: What about the T/C (dose: 75.0 mg/kg/injection, schedule: Q04DX003 (ip), vehicle: Klucel (hydroxypropylcellulose) (HPC)) of the same compound?
A: 40 % of control

Q: What about the T/C (dose: 150.0 mg/kg/injection, schedule: Q04DX003 (ip), vehicle: Klucel (hydroxypropylcellulose) (HPC)) of the same compound?
A: 21 % of control

Q: `CCCCCCSc1nc(COC(=O)NC)c(COC(=O)NC)n1C` was tested. Which T/C (dose: 33.7 mg/kg/injection, schedule: Q04DX003 (ip), vehicle: saline) did it give?
A: 100 % of control

Q: And the T/C (dose: 135.0 mg/kg/injection, schedule: Q04DX003 (ip), vehicle: saline)?
A: 23 % of control

Q: `CCc1ccc(C2=C(O)C(=O)C(c3ccc(CC)cc3)=C(O)C2=O)cc1` was tested. Which T/C (dose: 200.0 mg/kg/injection, schedule: Q04DX003 (sc), vehicle: saline with Tween-80) did it give?
A: 67 % of control

Q: Which results are given for `C#CCN(Cc1ccc2nc(N)[nH]c(=O)c2c1)c1ccc(C(=O)NC(CCC(=O)O)C(=O)O)cc1` (centres undefined)?
A: T/C [1]: 111 % of control; T/C [2]: 74 % of control; T/C [3]: 72 % of control

Q: `CC1(C)Nc2cc3c(cc2-n2cccc21)oc1ccccc13` was tested. Which T/C (dose: 150.0 mg/kg/injection, schedule: Q04DX003 (ip), vehicle: DMSO) did it give?
A: 113 % of control

Q: And the T/C (dose: 300.0 mg/kg/injection, schedule: Q04DX003 (ip), vehicle: DMSO)?
A: 90 % of control

Q: And the T/C (dose: 600.0 mg/kg/injection, schedule: Q04DX003 (ip), vehicle: DMSO)?
A: 83 % of control

Q: What about the T/C (dose: 1200.0 mg/kg/injection, schedule: Q04DX003 (ip), vehicle: DMSO) of the same compound?
A: 80 % of control

Q: For `C=C1C(O)C2(O)OCC34C(CC5C(C)=CC(=O)C(O)C5(C)C23)OC(=O)C(OC(=O)C/C=C(\C)CCCCC)C14` (centres undefined), which T/C (dose: 1.5 mg/kg/injection, schedule: Q04DX003 (ip), vehicle: saline + alcohol) is on record?
A: 69 % of control

Q: What about the T/C (dose: 3.0 mg/kg/injection, schedule: Q04DX003 (ip), vehicle: saline + alcohol) of the same compound?
A: 87 % of control

Q: And the T/C (dose: 6.0 mg/kg/injection, schedule: Q04DX003 (ip), vehicle: saline + alcohol)?
A: 47 % of control

Q: And the T/C (dose: 12.0 mg/kg/injection, schedule: Q04DX003 (ip), vehicle: saline + alcohol)?
A: 43 % of control

Q: How did the T/C [4] turn out when `NC(CCl)=NCC12CC3CC(CC(C3)C1)C2` was run?
A: 102 % of control

Q: What about the T/C (dose: 75.0 mg/kg/injection, schedule: Q04DX003 (sc), vehicle: Klucel (hydroxypropylcellulose) (HPC)) of the same compound?
A: 104 % of control

Q: How did the T/C (dose: 300.0 mg/kg/injection, schedule: Q04DX003 (ip), vehicle: saline with Tween-80) turn out when `CSCCC(N)C(=O)O` (centres undefined) was run?
A: 101 % of control

Q: What about the T/C (dose: 600.0 mg/kg/injection, schedule: Q04DX003 (ip), vehicle: saline with Tween-80) of the same compound?
A: 85 % of control and 105 % of control

Q: What about the T/C (dose: 1200.0 mg/kg/injection, schedule: Q04DX003 (ip), vehicle: saline with Tween-80) of the same compound?
A: 102 % of control and 112 % of control

Q: And the T/C (dose: 2400.0 mg/kg/injection, schedule: Q04DX003 (ip), vehicle: saline with Tween-80)?
A: 91 % of control and 106 % of control

Q: What does the source list for `CNc1n[n+](-c2ccccc2)no1`?
A: T/C (dose: 18.25 mg/kg/injection, schedule: Q04DX003 (sc), vehicle: water): 88 % of control; T/C (dose: 37.5 mg/kg/injection, schedule: Q04DX003 (sc), vehicle: water): 81 % of control; T/C (dose: 75.0 mg/kg/injection, schedule: Q04DX003 (sc), vehicle: water): 91 % of control

Q: `O=C1CC2(C(=O)N1CN1CCOCC1)c1ccccc1-c1ccccc12` was tested. Which T/C (dose: 300.0 mg/kg/injection, schedule: Q04DX003 (ip), vehicle: Klucel (hydroxypropylcellulose) (HPC)) did it give?
A: 97 % of control

Q: And the T/C (dose: 600.0 mg/kg/injection, schedule: Q04DX003 (ip), vehicle: Klucel (hydroxypropylcellulose) (HPC))?
A: 72 % of control

Q: For `COC(=O)NC1C(C)OC(OC2C/C=C(/C)C3C=CC4C(OC5CC(OC6CC(OC7CC(O)C(O)C(C)O7)C(OC7CC(O)C(OC)C(C)O7)C(C)O6)C(O)C(C)O5)C(C)CC(C)C4C3(C)/C(O)=C3\C(=O)OC4(CC(C)C(CO)=CC4/C=C\2C)C3=O)CC1(C)[N+](=O)[O-]` (centres undefined), which T/C [1] is on record?
A: 198 % of control

Q: What about the T/C [2] of the same compound?
A: 120 % of control

Q: What about the T/C [3] of the same compound?
A: 73 % of control

Q: With `N#CC(C#N)=C/C=C/c1cccc([N+](=O)[O-])c1` as the compound, how does the T/C (dose: 200.0 mg/kg/injection, schedule: Q01DX010 (sc), vehicle: Klucel (hydroxypropylcellulose) (HPC)) read?
A: 176 % of control

Q: And the T/C (dose: 400.0 mg/kg/injection, schedule: Q01DX010 (sc), vehicle: Klucel (hydroxypropylcellulose) (HPC))?
A: 214 % of control

Q: How did the T/C (dose: 25.0 mg/kg/injection, schedule: Q04DX003 (ip), vehicle: saline with Tween-80) turn out when `NCCCNCCCCNC(=O)C(O)NC(=O)CCCCCCN=C(N)N` (centres undefined) was run?
A: 69 % of control

Q: `CC(=O)O[C@H]1C(=O)[C@@]2(C)C(C(OC(=O)c3ccccc3)[C@]3(O)C[C@H](OC(=O)C(OC(=O)CN(C)C)C(NC(=O)c4ccccc4)c4ccccc4)C(C)=C1C3(C)C)C1(OC(C)=O)COC1C[C@@H]2O` (some centres undefined) was tested. Which T/C (dose: 1.88 mg/kg/injection, schedule: Q01DX009 (ip), vehicle: water) did it give?
A: 64 % of control

Q: What about the T/C (dose: 3.75 mg/kg/injection, schedule: Q01DX009 (ip), vehicle: water) of the same compound?
A: 5 % of control

Q: And the T/C (dose: 5.9 mg/kg/injection, schedule: Q01DX009 (ip), vehicle: water)?
A: -78 % of control

Q: What about the T/C (dose: 7.5 mg/kg/injection, schedule: Q01DX009 (ip), vehicle: water) of the same compound?
A: 4 % of control

Q: And the T/C (dose: 8.9 mg/kg/injection, schedule: Q01DX009 (ip), vehicle: water)?
A: -53 % of control

Q: What about the T/C (dose: 13.3 mg/kg/injection, schedule: Q01DX009 (ip), vehicle: water) of the same compound?
A: -100 % of control

Q: What about the T/C (dose: 15.0 mg/kg/injection, schedule: Q01DX009 (ip), vehicle: water) of the same compound?
A: -80 % of control

Q: And the T/C (dose: 20.0 mg/kg/injection, schedule: Q01DX009 (ip), vehicle: water)?
A: -100 % of control

Q: Which T/C (dose: 2.75 mg/kg/injection, schedule: Q04DX003 (ip), vehicle: water) does the source give for `O=C1c2c(O)cccc2-c2nn(CCNCCO)c3ccc(NCCNCCO)c1c23` here?
A: 3 % of control

Q: What about the T/C (dose: 5.5 mg/kg/injection, schedule: Q04DX003 (ip), vehicle: water) of the same compound?
A: -100 % of control

Q: What about the T/C (dose: 11.0 mg/kg/injection, schedule: Q04DX003 (ip), vehicle: water) of the same compound?
A: -19 % of control

Q: With `CCCCCCCCCCC(OC(C)=O)C1CCC(C2CCC(C(O)CCCCCCCCCCCCC3C=C(C)OC3=O)O2)O1` (centres undefined) as the compound, how does the T/C (dose: 20.0 mg/kg/injection, schedule: Q04DX003 (sc), vehicle: water) read?
A: 80 % of control

Q: What about the T/C (dose: 40.0 mg/kg/injection, schedule: Q04DX003 (sc), vehicle: water) of the same compound?
A: 72 % of control

Q: What about the T/C (dose: 80.0 mg/kg/injection, schedule: Q04DX003 (sc), vehicle: water) of the same compound?
A: 71 % of control

Q: What about the T/C (dose: 160.0 mg/kg/injection, schedule: Q04DX003 (sc), vehicle: water) of the same compound?
A: 70 % of control

Q: `Nc1ccc(Cn2ccc3c4c(N)nc(N)nc4ccc32)cc1` was tested. Which T/C (dose: 18.75 mg/kg/injection, schedule: Q04DX003 (sc), vehicle: saline with Tween-80) did it give?
A: 80 % of control

Q: What about the T/C (dose: 37.5 mg/kg/injection, schedule: Q04DX003 (sc), vehicle: saline with Tween-80) of the same compound?
A: 75 % of control

Q: What does the source list for `CC(=O)/C(=C\c1ccc(/C=C(\C(C)=O)C(=O)CCN(C)C)cc1)C(=O)CCN(C)C`?
A: T/C [5]: 122 % of control; T/C (dose: 200.0 mg/kg/injection, schedule: Q04DX003 (ip), vehicle: saline with Tween-80): 90 % of control

Q: What does the source list for `Cc1ccc(C(=Nc2ccccc2)N=P(c2ccccc2)(c2ccccc2)c2ccccc2)cc1`?
A: T/C (dose: 50.0 mg/kg/injection, schedule: Q04DX003 (ip), vehicle: saline with Tween-80): 68 % of control; T/C [5]: 45 % of control

Q: How did the T/C (dose: 12.5 mg/kg/injection, schedule: Q04DX003 (sc), vehicle: Klucel (hydroxypropylcellulose) (HPC)) turn out when `O=S1(=O)CS(=O)(=O)OCCO1` was run?
A: 72 % of control

Q: And the T/C (dose: 25.0 mg/kg/injection, schedule: Q04DX003 (sc), vehicle: Klucel (hydroxypropylcellulose) (HPC))?
A: 23 % of control

Q: What about the T/C [4] of the same compound?
A: 42 % of control

Q: And the T/C (dose: 50.0 mg/kg/injection, schedule: Q04DX003 (sc), vehicle: Klucel (hydroxypropylcellulose) (HPC))?
A: 2 % of control

Q: What about the T/C (dose: 150.0 mg/kg/injection, schedule: Q04DX003 (sc), vehicle: Klucel (hydroxypropylcellulose) (HPC)) of the same compound?
A: 16 % of control and 21 % of control

Q: What about the T/C (dose: 300.0 mg/kg/injection, schedule: Q04DX003 (sc), vehicle: Klucel (hydroxypropylcellulose) (HPC)) of the same compound?
A: 11 % of control
